Measured values: ChEMBL document CHEMBL4270525, “SAR studies on truxillic acid mono esters as a new class of antinociceptive agents targeting fatty acid binding proteins” (Eur J Med Chem, 2018)

Experiments:
[1] = biological target: Fatty acid-binding protein 5 (Homo sapiens, UniProt Q01469); experiment: Displacement of DAUDA from recombinant human N-terminal His-tagged FABP5 expressed in Escherichia coli BL21(DE3) after 20 mins by fluorescence assay
[2] = biological target: Fatty acid-binding protein, brain (Homo sapiens, UniProt O15540); experiment: Displacement of ANS from recombinant human N-terminal His-tagged FABP7 expressed in Escherichia coli BL21(DE3) after 20 mins by fluorescence assay
Fatty acid-binding protein, brain, sequence (O15540 whole entry): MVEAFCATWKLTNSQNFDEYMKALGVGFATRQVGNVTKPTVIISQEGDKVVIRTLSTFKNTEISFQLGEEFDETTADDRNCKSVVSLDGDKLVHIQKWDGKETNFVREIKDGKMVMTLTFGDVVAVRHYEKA

[3] = biological target: Fatty acid-binding protein, heart (Homo sapiens, UniProt P05413); experiment: Displacement of DAUDA from recombinant human N-terminal His-tagged FABP3 expressed in Escherichia coli BL21(DE3) after 20 mins by fluorescence assay
Fatty acid-binding protein, heart, sequence (P05413 whole entry): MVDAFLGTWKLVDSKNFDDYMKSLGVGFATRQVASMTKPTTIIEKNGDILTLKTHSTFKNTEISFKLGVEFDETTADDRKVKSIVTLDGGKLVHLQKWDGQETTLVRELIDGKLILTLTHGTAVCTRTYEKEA

[4] = Colloidal aggregation of the compound at 20 uM by dynamic light scattering method; format: physicochemical
[5] = Half life in C57BL/6 mouse at 20 mg/kg, ip by LC-MS analysis; format: ADME, organism-based; details: in vivo

Fatty acid-binding protein 5, sequence (Q01469 whole entry): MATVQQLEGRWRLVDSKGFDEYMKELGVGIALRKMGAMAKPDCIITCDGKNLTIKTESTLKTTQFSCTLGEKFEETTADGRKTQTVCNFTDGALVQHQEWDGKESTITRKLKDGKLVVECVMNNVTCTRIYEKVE

Ki ([1]; read-out: Ki)	Ki ([2]; read-out: Ki)	Ki ([3]; read-out: Ki)	SMILES	also measured
> 10 µM	> 10 µM	> 10 µM	O=C(O)[C@H]1[C@H](c2ccccc2)[C@@H](C(=O)Nc2nc(-c3ccc4c(c3)CCCC4)cs2)[C@H]1c1ccccc1	–
> 10 µM	> 10 µM	> 10 µM	COc1ccc(COC(=O)[C@H]2[C@H](c3ccccc3)[C@H](C(=O)OCc3ccc(OC)cc3)[C@H]2c2ccccc2)cc1	–
> 10 µM	> 10 µM	> 10 µM	O=C(O)[C@H]1[C@H](c2ccccc2)[C@H](C(=O)O)[C@H]1c1ccccc1	–
> 10 µM	> 10 µM	> 10 µM	O=C(OCC1CCOCC1)[C@H]1[C@H](c2ccccc2)[C@H](C(=O)OCC2CCOCC2)[C@H]1c1ccccc1	–
> 10 µM	> 10 µM	> 10 µM	COc1cc([C@H]2[C@H](C(=O)O)[C@H](c3ccc(O)c(OC)c3)[C@H]2C(=O)O)ccc1O	–
3.93 µM	> 10 µM	> 10 µM	COc1ccccc1[C@H]1[C@H](C(=O)O)[C@H](c2ccccc2OC)[C@H]1C(=O)Oc1cccc2ncccc12	–
–	–	2.82 µM	O=C(O)[C@H]1[C@H](c2ccccc2)[C@H](C(=O)Oc2cccc3ccccc23)[C@H]1c1ccccc1	–
–	> 10 µM	> 10 µM	O=C(O)[C@H]1[C@H](c2ccccc2Br)[C@H](C(=O)O[C@@H]2CCCC[C@H]2c2ccccc2)[C@H]1c1ccccc1Br	–
–	0.4 µM	0.4 µM	COc1ccccc1[C@H]1[C@H](C(=O)O)[C@H](c2ccccc2OC)[C@H]1C(=O)O[C@@H]1CCCC[C@H]1c1ccccc1	–
> 10 µM	> 10 µM	> 10 µM	O=C(O)[C@H]1[C@H](c2ccccc2)[C@H](C(=O)Nc2nc(-c3ccc4c(c3)CCCC4)cs2)[C@H]1c1ccccc1	–
> 10 µM	> 10 µM	> 10 µM	O=C(OCc1ccccc1)[C@H]1[C@H](c2ccccc2)[C@H](C(=O)OCc2ccccc2)[C@H]1c1ccccc1	–
–	–	–	O=C(O)[C@H]1[C@H](c2ccccc2)[C@H](C(=O)O[C@@H]2CCCC[C@H]2c2ccccc2)[C@H]1c1ccccc1	Activity [4]: Not Active
> 10 µM	> 10 µM	> 10 µM	COc1ccc([C@H]2[C@H](C(=O)O)[C@H](c3ccc(OC)c(OC)c3)[C@H]2C(=O)O)cc1OC	–
> 10 µM	> 10 µM	> 10 µM	O=C(OCc1ccc(F)cc1)[C@H]1[C@H](c2ccccc2)[C@H](C(=O)OCc2ccc(F)cc2)[C@H]1c1ccccc1	–
–	–	3.26 µM	O=C(O)[C@H]1[C@@H](c2ccccc2)[C@H](C(=O)Oc2cccc3ccccc23)[C@@H]1c1ccccc1	–
–	0.5 µM	> 10 µM	O=C(O)[C@H]1[C@H](c2ccccc2)[C@H](C(=O)OC2CCCCC2)[C@H]1c1ccccc1	–
–	–	–	O=C(Oc1cccc(-c2ccccc2)c1)[C@H]1[C@H](c2ccccc2)[C@H](C(=O)Oc2cccc(-c3ccccc3)c2)[C@H]1c1ccccc1	Ki [1]: Nd(Insoluble); Ki [2]: Nd(Insoluble); Ki [3]: Nd(Insoluble)
3.81 µM	–	> 10 µM	O=C(O)[C@H]1[C@H](c2ccccc2)[C@H](C(=O)OCc2ccccc2)[C@H]1c1ccccc1	–
–	0.54 µM	2.98 µM	O=C(O)[C@H]1[C@H](c2ccccc2)[C@H](C(=O)Oc2cc(Cl)c(Cl)cc2Cl)[C@H]1c1ccccc1	–
1.23 µM	–	> 10 µM	O=C(O)[C@H]1[C@H](c2c(Cl)cccc2Cl)[C@H](C(=O)O[C@@H]2CCCC[C@H]2c2ccccc2)[C@H]1c1c(Cl)cccc1Cl	–
0.89 µM	0.78 µM	> 10 µM	C#Cc1cccc(OC(=O)[C@H]2[C@@H](c3ccccc3)[C@H](C(=O)O)[C@@H]2c2ccccc2)c1 (racemic)	–
1.7 µM	> 10 µM	> 10 µM	O=C(O)[C@H]1[C@H](c2ccccc2Cl)[C@H](C(=O)O[C@@H]2CCCC[C@H]2c2ccccc2)[C@H]1c1ccccc1Cl (racemic)	–
–	0.45 µM	2.7 µM	O=C(O)C1C(c2ccccc2)C(C(=O)Oc2cccc3ccccc23)C1c1ccccc1 (racemic)	half-life [5]: 3 h; Activity [4]: Not Active

SMILES	Ki ([1]; read-out: Ki)	Ki ([2]; read-out: Ki)	Ki ([3]; read-out: Ki)	also measured
O=C(O)[C@H]1[C@H](c2ccccc2)[C@H](C(=O)Oc2ccccc2-c2ccccc2)[C@H]1c1ccccc1	–	0.35 µM	–	–
O=C(O)[C@H]1[C@H](c2ccccc2[N+](=O)[O-])[C@H](C(=O)Oc2cccc3ccccc23)[C@H]1c1ccccc1[N+](=O)[O-]	> 10 µM	> 10 µM	> 10 µM	–
O=C(O)[C@H]1[C@H](c2ccccc2[N+](=O)[O-])[C@H](C(=O)O[C@@H]2CCCC[C@H]2c2ccccc2)[C@H]1c1ccccc1[N+](=O)[O-]	> 10 µM	> 10 µM	> 10 µM	–
O=C(O)[C@H]1[C@H](c2ccccc2)[C@H](C(=O)OCC(F)(F)F)[C@H]1c1ccccc1	> 10 µM	–	> 10 µM	–
O=C(O)[C@H]1[C@H](c2ccc(O)cc2)[C@H](C(=O)Oc2cccc3ccccc23)[C@H]1c1ccc(O)cc1 (racemic)	> 10 µM	–	2.3 µM	–
